According to patent US10604512B2, “3-(1H-indol-2-yl)-1H-indazoles and therapeutic uses thereof” (Samumed, LLC, priority 2015, dated 2020):

How the values were obtained:
[1] = tested on: Wnt activity (Sp5-Luc reporter, TCF/LEF binding sites) in SW480 colon carcinoma cells; test: Screening assay for Wnt activity: Sp5-Luc reporter gene assay in stably transduced SW480 colon carcinoma cells; format: cell-based; details: Homo sapiens; for inhibition at 10 µM: given where EC50 >10 μM, read-out: percent inhibition at 10 μM; for EC50: overnight incubation, 10-point curve from 10 μM
Summary of the method: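 SW480 cells stably transduced with a luciferase reporter driven by an Sp5 promoter of eight TCF/LEF sites were plated at 4,000 cells/well in 1% FBS medium. They were exposed overnight at 37° C to a 10-point 1:3 dilution series from 10 μM (0.1% DMSO). Luminescence was normalized to DMSO for four-parameter EC50, or percent inhibition at 10 μM.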

[2] = tested on: IL-6; test: Inhibition of IL-6 in LPS-stimulated THP-1 human monocyte cells (HTRF); format: cell-based; details: for EC50: IL-6 inhibition, LPS-stimulated THP-1 cells, HTRF; for inhibition at 10 µM: THP-1, printed beside >10 μM EC50, top concentration 10 μM, meaning not given, read-out: percentage in parentheses after EC50 >10
Summary of the method: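 THP-1 cells serum-reduced (1% FBS, 24 h), then 5000 cells/well preincubated 2 h with compound (10-point 1:3 series from 10 μM, 0.1% DMSO) before 500 ng/mL LPS for 22 h at 37 °C. Secreted IL-6 quantified by HTRF 665/620 ratio; DMSO-normalised duplicates fitted to four-parameter EC50; above 10 μM, % inhibition at 10 μM given.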

FC1(F)CCN(Cc2cncc(-c3ccc4[nH]nc(-c5cc6c(-c7cccnc7)cccc6[nH]5)c4c3)c2)C1 [Compound 110, 5-(5-((3,3-Difluoropyrrolidin-1-yl)methyl)pyridin-3-yl)-3-(4-(pyridin-3-yl)-1H-indol-2-yl)-1H-indazole]
inhibition at 10 µM [1]: 30.1% | EC50 [1]: > 10000 nM | EC50 [2]: > 10000 nM | inhibition at 10 µM [2]: 32.2%

c1cncc(-c2cccc3[nH]c(-c4n[nH]c5ccc(-c6cncnc6)cc45)cc23)c1 [Compound 111, 3-(4-(Pyridin-3-yl)-1H-indol-2-yl)-5-(pyrimidin-5-yl)-1H-indazole]
EC50 [1]: 990 nM | EC50 [2]: 3060 nM

Cc1ccncc1-c1ccc2[nH]nc(-c3cc4c(-c5ccncc5)cccc4[nH]3)c2c1 [Compound 117, 5-(4-Methylpyridin-3-yl)-3-(4-(pyridin-4-yl)-1H-indol-2-yl)-1H-indazole]
inhibition at 10 µM [1]: 19.6% | EC50 [1]: > 10000 nM | EC50 [2]: > 10000 nM | inhibition at 10 µM [2]: 38.6%

CCNCc1cncc(-c2ccc3[nH]nc(-c4cc5c(-c6ccncc6)cccc5[nH]4)c3c2)c1 [Compound 118, N-((5-(3-(4-(Pyridin-4-yl)-1H-indol-2-yl)-1H-indazol-5-yl)pyridin-3-yl)methyl)ethanamine]
EC50 [1]: 1440 nM | EC50 [2]: 137 nM

O=C(Cc1ccccc1)Nc1cncc(-c2ccc3[nH]nc(-c4cc5c(-c6ccncc6)cccc5[nH]4)c3c2)c1 [Compound 122, 2-Phenyl-N-(5-(3-(4-(pyridin-4-yl)-1H-indol-2-yl)-1H-indazol-5-yl)pyridin-3-yl)acetamide]
inhibition at 10 µM [1]: 45.5% | EC50 [1]: > 10000 nM | EC50 [2]: > 10000 nM | inhibition at 10 µM [2]: 29.6%

CN(C)Cc1cncc(-c2ccc3[nH]nc(-c4cc5c(-c6ccncc6)cccc5[nH]4)c3c2)c1 [Compound 125, N,N-dimethyl-1-(5-(3-(4-(Pyridin-4-yl)-1H-indol-2-yl)-1H-indazol-5-yl)pyridin-3-yl)methanamine]
EC50 [1]: 275 nM | EC50 [2]: 150 nM

CCCC(=O)Nc1cncc(-c2ccc3[nH]nc(-c4cc5c(-c6ccncc6)cccc5[nH]4)c3c2)c1 [Compound 129, N-(5-(3-(4-(Pyridin-4-yl)-1H-indol-2-yl)-1H-indazol-5-yl)pyridin-3-yl) butyramide]
EC50 [1]: 600 nM | EC50 [2]: > 10000 nM | inhibition at 10 µM [2]: 33.4%

c1cc(-c2ccncc2)c2cc(-c3n[nH]c4ccc(-c5ccncc5)cc34)[nH]c2c1 [Compound 130, 5-(Pyridin-4-yl)-3-(4-(pyridin-4-yl)-1H-indol-2-yl)-1H-indazole]
inhibition at 10 µM [1]: 52.8% | EC50 [1]: > 10000 nM | EC50 [2]: > 10000 nM | inhibition at 10 µM [2]: 48.8%

O=C(Nc1cncc(-c2ccc3[nH]nc(-c4cc5c(-c6ccncc6)cccc5[nH]4)c3c2)c1)C1CC1 [Compound 132, N-(5-(3-(4-(Pyridin-4-yl)-1H-indol-2-yl)-1H-indazol-5-yl)pyridin-3-yl) cyclopropanecarboxamide]
EC50 [1]: 135 nM | EC50 [2]: 109 nM

O=C(Nc1cncc(-c2ccc3[nH]nc(-c4cc5c(-c6ccncc6)cccc5[nH]4)c3c2)c1)C1CCCCC1 [Compound 135, N-(5-(3-(4-(Pyridin-4-yl)-1H-indol-2-yl)-1H-indazol-5-yl)pyridin-3-yl) cyclohexanecarboxamide]
EC50 [1]: 4400 nM | EC50 [2]: 9900 nM

c1ccc(-c2ccc3[nH]nc(-c4cc5c(-c6ccncc6)cccc5[nH]4)c3c2)nc1 [Compound 140, 5-(Pyridin-2-yl)-3-(4-(pyridin-4-yl)-1H-indol-2-yl)-1H-indazole]
EC50 [1]: 3560 nM | EC50 [2]: 136 nM

Nc1cncc(-c2ccc3[nH]nc(-c4cc5c(-c6ccccn6)cccc5[nH]4)c3c2)c1 [Compound 143, 5-(3-(4-(Pyridin-2-yl)-1H-indol-2-yl)-1H-indazol-5-yl)pyridin-3-amine]
EC50 [1]: 60 nM | EC50 [2]: 290 nM

Cc1ccncc1-c1ccc2[nH]nc(-c3cc4c(-c5ccccn5)cccc4[nH]3)c2c1 [Compound 145, 5-(4-Methylpyridin-3-yl)-3-(4-(pyridin-2-yl)-1H-indol-2-yl)-1H-indazole]
EC50 [1]: 1900 nM | EC50 [2]: 4840 nM
